Reference: ChEMBL document CHEMBL5653615 (J Biol Chem, 2013)

Legend:
[1] = biological target: G protein-coupled receptor kinase 5 (Homo sapiens) (UniProt P34947); assay: Inhibition of human GRK5 at 18.6 nM by HotSpot assay relative to control
[2] = biological target: Ephrin type-A receptor 2 (Homo sapiens) (UniProt P29317); assay: Inhibition of human EPHA2 at 18.6 nM by HotSpot assay relative to control
[3] = biological target: Serine/threonine-protein kinase pim-1 (Homo sapiens) (UniProt P11309); assay: Inhibition of human PIM1 at 18.6 nM by HotSpot assay relative to control
[4] = biological target: Mitogen-activated protein kinase 9 (Homo sapiens) (UniProt P45984); assay: Inhibition of human JNK2 at 18.6 nM by HotSpot assay relative to control
[5] = biological target: SRSF protein kinase 3 (Homo sapiens) (UniProt Q9UPE1); assay: Inhibition of human STK23 at 1.82 nM by HotSpot assay relative to control
[6] = biological target: T1, Serine/threonine-protein kinase haspin (Homo sapiens) (UniProt Q8TF76); assay: Inhibition of human Haspin at 1.82 nM by HotSpot assay relative to control
T1 sequence (whole entry): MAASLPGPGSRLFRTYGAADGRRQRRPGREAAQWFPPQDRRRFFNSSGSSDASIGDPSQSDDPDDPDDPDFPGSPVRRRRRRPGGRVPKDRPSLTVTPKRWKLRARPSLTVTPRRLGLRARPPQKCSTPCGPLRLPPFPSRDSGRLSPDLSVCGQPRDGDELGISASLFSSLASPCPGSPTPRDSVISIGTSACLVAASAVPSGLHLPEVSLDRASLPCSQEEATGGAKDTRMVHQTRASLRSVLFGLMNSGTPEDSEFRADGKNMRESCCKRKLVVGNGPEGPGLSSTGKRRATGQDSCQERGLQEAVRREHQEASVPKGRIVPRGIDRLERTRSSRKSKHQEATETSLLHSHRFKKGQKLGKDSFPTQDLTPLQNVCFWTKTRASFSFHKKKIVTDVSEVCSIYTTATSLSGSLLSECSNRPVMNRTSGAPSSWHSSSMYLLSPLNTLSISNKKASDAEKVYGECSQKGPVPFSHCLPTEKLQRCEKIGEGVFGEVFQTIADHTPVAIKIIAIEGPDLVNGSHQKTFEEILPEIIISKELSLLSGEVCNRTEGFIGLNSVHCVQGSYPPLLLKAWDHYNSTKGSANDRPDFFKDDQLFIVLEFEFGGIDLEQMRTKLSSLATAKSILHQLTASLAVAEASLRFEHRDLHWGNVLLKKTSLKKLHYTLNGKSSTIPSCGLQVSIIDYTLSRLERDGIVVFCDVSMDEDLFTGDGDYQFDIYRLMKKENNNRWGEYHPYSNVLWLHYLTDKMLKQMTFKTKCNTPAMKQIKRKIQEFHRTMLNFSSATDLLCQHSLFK

[7] = organism: Homo sapiens; assay: Inhibition of human TAO1 at 1.82 nM by HotSpot assay relative to control
[8] = biological target: T2, Dual specificity tyrosine-phosphorylation-regulated kinase 2 (Homo sapiens) (UniProt Q92630); assay: Inhibition of human DYRK2 at 1.82 nM by HotSpot assay relative to control
T2 sequence (whole entry): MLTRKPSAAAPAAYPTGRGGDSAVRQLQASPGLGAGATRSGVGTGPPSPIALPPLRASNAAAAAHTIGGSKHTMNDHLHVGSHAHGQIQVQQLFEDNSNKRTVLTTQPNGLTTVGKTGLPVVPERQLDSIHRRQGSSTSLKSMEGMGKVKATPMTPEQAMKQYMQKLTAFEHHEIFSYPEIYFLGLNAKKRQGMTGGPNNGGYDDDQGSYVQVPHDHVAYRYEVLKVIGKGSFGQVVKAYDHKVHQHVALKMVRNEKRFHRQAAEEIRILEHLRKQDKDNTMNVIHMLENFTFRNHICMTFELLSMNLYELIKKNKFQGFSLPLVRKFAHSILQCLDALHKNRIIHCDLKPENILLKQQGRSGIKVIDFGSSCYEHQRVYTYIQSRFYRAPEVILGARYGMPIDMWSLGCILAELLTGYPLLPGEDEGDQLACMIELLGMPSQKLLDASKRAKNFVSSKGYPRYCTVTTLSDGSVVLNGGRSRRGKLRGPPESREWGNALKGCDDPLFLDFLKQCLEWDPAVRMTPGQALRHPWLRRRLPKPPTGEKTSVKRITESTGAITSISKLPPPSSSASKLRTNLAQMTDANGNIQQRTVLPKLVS

[9] = biological target: T3, Ephrin type-B receptor 1 (Homo sapiens) (UniProt P54762); assay: Inhibition of human EPHB1 at 1.82 nM by HotSpot assay relative to control
T3 sequence (whole entry): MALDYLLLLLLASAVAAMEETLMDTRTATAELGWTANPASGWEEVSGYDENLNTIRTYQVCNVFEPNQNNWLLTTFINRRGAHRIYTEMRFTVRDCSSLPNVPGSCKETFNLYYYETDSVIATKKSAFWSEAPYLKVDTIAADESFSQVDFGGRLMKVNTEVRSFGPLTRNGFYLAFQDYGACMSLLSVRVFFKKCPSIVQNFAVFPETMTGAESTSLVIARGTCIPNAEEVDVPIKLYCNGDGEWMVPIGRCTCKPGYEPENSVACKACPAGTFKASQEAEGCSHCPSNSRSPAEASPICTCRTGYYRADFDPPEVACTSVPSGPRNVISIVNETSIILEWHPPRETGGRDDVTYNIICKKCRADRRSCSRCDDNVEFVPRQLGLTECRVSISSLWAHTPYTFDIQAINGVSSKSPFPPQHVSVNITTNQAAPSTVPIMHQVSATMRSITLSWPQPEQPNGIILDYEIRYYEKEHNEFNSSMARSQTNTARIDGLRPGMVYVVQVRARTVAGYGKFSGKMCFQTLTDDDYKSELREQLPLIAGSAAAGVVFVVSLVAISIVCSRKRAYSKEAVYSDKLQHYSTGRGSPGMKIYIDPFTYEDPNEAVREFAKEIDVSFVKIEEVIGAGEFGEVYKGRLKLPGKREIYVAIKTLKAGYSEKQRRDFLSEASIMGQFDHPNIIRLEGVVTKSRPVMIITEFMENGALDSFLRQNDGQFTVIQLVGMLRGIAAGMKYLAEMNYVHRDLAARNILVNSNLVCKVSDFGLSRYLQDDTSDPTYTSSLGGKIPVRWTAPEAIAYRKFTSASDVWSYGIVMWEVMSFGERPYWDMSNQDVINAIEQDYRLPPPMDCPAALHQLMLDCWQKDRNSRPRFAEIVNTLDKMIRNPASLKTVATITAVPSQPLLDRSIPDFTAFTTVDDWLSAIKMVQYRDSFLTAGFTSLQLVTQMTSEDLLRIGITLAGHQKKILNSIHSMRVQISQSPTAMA

Chain of SRSF protein kinase 3 (Homo sapiens) (Q9UPE1 whole entry): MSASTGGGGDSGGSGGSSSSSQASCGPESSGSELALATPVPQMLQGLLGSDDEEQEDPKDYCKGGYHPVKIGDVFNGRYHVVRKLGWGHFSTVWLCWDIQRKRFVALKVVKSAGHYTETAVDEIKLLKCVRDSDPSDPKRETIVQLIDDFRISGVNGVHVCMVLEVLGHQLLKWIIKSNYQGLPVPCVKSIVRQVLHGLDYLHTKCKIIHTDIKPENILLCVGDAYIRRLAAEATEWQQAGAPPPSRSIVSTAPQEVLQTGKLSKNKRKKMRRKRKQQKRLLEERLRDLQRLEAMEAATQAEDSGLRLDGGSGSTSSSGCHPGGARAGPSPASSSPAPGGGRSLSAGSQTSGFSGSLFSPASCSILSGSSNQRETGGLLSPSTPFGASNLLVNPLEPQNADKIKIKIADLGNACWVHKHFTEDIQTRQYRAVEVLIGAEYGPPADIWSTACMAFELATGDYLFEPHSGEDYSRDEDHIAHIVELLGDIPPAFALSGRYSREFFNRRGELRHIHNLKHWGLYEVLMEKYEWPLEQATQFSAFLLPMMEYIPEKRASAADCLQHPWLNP
Chain of Ephrin type-A receptor 2 (Homo sapiens) (P29317 whole entry): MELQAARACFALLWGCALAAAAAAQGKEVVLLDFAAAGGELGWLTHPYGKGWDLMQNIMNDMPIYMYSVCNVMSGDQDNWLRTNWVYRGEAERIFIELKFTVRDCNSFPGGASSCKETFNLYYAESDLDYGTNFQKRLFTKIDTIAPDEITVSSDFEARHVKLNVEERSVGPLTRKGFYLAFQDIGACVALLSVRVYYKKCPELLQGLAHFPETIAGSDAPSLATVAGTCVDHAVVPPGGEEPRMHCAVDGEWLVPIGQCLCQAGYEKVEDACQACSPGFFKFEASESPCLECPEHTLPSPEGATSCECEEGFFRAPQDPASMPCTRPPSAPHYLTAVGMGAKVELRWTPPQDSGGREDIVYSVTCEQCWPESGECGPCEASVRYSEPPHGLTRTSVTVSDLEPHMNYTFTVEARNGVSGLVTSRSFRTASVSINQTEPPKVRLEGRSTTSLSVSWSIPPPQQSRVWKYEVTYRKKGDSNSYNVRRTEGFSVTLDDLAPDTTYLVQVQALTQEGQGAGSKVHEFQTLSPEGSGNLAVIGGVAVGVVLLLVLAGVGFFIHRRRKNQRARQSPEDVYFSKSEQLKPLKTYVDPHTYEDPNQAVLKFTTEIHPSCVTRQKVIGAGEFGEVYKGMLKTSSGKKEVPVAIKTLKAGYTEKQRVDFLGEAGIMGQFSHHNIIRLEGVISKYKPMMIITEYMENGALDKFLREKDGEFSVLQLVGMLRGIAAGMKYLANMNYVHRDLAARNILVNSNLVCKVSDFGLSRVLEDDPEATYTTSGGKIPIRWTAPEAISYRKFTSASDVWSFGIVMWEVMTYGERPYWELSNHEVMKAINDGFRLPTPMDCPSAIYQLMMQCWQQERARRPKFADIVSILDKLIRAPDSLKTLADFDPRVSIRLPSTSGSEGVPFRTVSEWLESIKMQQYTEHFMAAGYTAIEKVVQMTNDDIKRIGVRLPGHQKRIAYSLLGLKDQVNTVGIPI
Chain of Mitogen-activated protein kinase 9 (Homo sapiens) (P45984 whole entry, looked up): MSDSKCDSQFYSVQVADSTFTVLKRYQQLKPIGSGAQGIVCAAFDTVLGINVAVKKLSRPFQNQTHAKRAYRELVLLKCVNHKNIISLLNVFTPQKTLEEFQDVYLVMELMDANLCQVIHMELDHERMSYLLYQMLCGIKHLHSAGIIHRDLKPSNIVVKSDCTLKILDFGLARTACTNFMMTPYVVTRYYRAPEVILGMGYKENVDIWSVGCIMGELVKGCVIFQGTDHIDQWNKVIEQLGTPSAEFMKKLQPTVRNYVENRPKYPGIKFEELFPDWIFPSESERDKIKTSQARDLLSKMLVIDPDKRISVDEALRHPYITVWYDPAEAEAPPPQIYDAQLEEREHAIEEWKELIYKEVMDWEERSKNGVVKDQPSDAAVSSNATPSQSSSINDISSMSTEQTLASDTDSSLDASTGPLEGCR
Chain of G protein-coupled receptor kinase 5 (Homo sapiens) (P34947 whole entry, looked up): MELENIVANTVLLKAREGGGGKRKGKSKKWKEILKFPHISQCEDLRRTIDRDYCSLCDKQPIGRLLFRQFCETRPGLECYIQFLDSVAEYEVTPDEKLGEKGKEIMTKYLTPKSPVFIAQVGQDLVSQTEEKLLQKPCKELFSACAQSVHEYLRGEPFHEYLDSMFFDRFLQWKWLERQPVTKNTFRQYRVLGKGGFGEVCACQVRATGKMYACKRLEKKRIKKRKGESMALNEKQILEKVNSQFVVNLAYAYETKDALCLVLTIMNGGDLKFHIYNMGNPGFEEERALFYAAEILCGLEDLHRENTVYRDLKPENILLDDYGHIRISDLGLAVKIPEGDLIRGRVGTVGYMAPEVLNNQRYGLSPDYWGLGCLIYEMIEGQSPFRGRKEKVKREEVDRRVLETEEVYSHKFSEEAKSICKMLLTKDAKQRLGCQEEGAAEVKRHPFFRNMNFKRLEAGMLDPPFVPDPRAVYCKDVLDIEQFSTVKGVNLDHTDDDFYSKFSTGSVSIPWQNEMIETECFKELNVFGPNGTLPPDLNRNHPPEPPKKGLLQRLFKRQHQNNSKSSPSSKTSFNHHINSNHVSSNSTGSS
Chain of Serine/threonine-protein kinase pim-1 (Homo sapiens) (P11309 whole entry, looked up): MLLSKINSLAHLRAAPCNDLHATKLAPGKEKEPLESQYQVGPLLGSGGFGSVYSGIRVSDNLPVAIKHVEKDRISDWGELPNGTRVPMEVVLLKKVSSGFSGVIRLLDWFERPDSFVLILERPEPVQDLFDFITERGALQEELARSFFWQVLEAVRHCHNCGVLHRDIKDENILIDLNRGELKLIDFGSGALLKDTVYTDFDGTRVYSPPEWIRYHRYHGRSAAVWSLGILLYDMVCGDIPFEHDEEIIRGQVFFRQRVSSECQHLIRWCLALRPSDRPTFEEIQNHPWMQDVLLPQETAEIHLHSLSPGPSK

| inhibition [1] [%] | inhibition [2] [%] | inhibition [3] [%] | inhibition [4] [%] | inhibition [5] [%] | inhibition [6] [%] | inhibition [7] [%] | inhibition [8] [%] | inhibition [9] [%] | Structure (SMILES) |
| --- | --- | --- | --- | --- | --- | --- | --- | --- | --- |
| -6.77 | 2.9 | -3.58 | -2.37 |  |  |  |  |  | C[C@]1(O)C[C@@H](c2nc(-c3ccc4ccc(-c5ccccc5)nc4c3)c3c(N)nccn32)C1 |
|  |  |  |  | -7.78 | -1.25 | 1.46 | 0 | 2.28 | C[C@@]1(C(=O)Nc2ccc(F)nc2)CCCN1c1nc(Nc2cc(C3CC3)n[nH]2)c2cccn2n1 |
